# Experimental data: US20100298141A1, “SUBSTITUTED PYRIDINE N-OXIDE HERBICIDES” (E. I. DU PONT DE NEMOURS AND COMPANY, priority 2007, published 2010)
# What was measured:
# giant foxtail [1] = assay: Test A pre-/postemergence greenhouse test; format: in vivo, Setaria faberi; conditions: for Plant response rating, Foxtail, Giant: 0 to 100 scale where 0 is no effect and 100 is complete control; for Foxtail, Giant plant response rating: 0 to 100 scale
# In short: (§1)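 Greenhouse herbicide screen, pre- and postemergence in parallel. Soil: loam plus sand. Formulation: non-phytotoxic solvent mix with surfactant. Postemergence stage: one to two leaves, 2–10 cm height. Evaluation: visual injury, compared with untreated controls, about 10 days after treatment.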
# morningglory = assay: Test A pre-/postemergence greenhouse test; format: in vivo, Ipomoea spp.; conditions: for Plant response rating, Morningglory: 0 to 100 scale where 0 is no effect and 100 is complete control; for Morningglory plant response rating: 0 to 100 scale
# In short: as §1
# redroot pigweed = assay: Test A pre-/postemergence greenhouse test; format: in vivo, Amaranthus retroflexus; conditions: for Plant response rating, Pigweed: 0 to 100 scale where 0 is no effect and 100 is complete control; for Pigweed plant response rating: 0 to 100 scale
# In short: as §1
# wheat [2] = assay: Test A pre-/postemergence greenhouse test; format: in vivo, Triticum aestivum; conditions: for Plant response rating, Wheat: 0 to 100 scale where 0 is no effect and 100 is complete control; for Wheat plant response rating: 0 to 100 scale
# In short: as §1
# blackgrass = assay: Test C pre-/postemergence test; format: in vivo, Alopecurus myosuroides; conditions: for Plant response rating, Blackgrass: 31 g ai/ha, scale 0 to 100 (0 no effect, 100 complete control)
# In short: (§2)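 Seeds were planted and treated preemergence with test chemical in a non-phytotoxic solvent mixture containing surfactant. Postemergence applications of the same formulation went onto plants 2 to 18 cm tall (1- to 4-leaf stage). A dash marks no test result.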
# downy brome = assay: Test C pre-/postemergence test; format: in vivo, Bromus tectorum; conditions: for Plant response rating, Bromegrass, Downy: 31 g ai/ha, scale 0 to 100 (0 no effect, 100 complete control)
# In short: as §2
# wheat [3] = assay: Test C pre-/postemergence test; format: in vivo, Triticum aestivum; conditions: for Plant response rating, Wheat: 31 g ai/ha, scale 0 to 100 (0 no effect, 100 complete control)
# In short: as §2
# wild oat = assay: Test C pre-/postemergence test; format: in vivo, Avena fatua; conditions: for Plant response rating, Oat, Wild: 31 g ai/ha, scale 0 to 100 (0 no effect, 100 complete control)
# In short: as §2
# catchweed bedstraw = assay: Test C pre-/postemergence test; format: in vivo, Galium aparine; conditions: for Plant response rating, Galium: 31 g ai/ha, scale 0 to 100 (0 no effect, 100 complete control)
# In short: as §2
# Surinam grass = assay: Test C pre-/postemergence test; format: in vivo, Brachiaria decumbens; conditions: for Plant response rating, Surinam Grass: 31 g ai/ha, scale 0 to 100 (0 no effect, 100 complete control)
# In short: as §2
# cocklebur = assay: Test C pre-/postemergence test; format: in vivo, Xanthium strumarium; conditions: for Plant response rating, Cocklebur: 31 g ai/ha, scale 0 to 100 (0 no effect, 100 complete control)
# In short: as §2
# woolly cupgrass = assay: Test C pre-/postemergence test; format: in vivo, Eriochloa villosa; conditions: for Plant response rating, Cupgrass, Woolly: 31 g ai/ha, scale 0 to 100 (0 no effect, 100 complete control)
# In short: as §2
# giant foxtail [4] = assay: Test C pre-/postemergence test; format: in vivo, Setaria faberii; conditions: for Plant response rating, Foxtail, Giant: 31 g ai/ha, scale 0 to 100 (0 no effect, 100 complete control)
# In short: as §2
# kochia = assay: Test C pre-/postemergence test; format: in vivo, Kochia scoparia; conditions: for Plant response rating, Kochia: 31 g ai/ha, scale 0 to 100 (0 no effect, 100 complete control)
# In short: as §2
# lambsquarters = assay: Test C pre-/postemergence test; format: in vivo, Chenopodium album; conditions: for Plant response rating, Lambsquarters: 31 g ai/ha, scale 0 to 100 (0 no effect, 100 complete control)
# In short: as §2
# eastern black nightshade = assay: Test C pre-/postemergence test; format: in vivo, Solanum ptycanthum; conditions: for Plant response rating, Nightshade: 31 g ai/ha, scale 0 to 100 (0 no effect, 100 complete control)
# In short: as §2
# common ragweed = assay: Test C pre-/postemergence test; format: in vivo, Ambrosia elation; conditions: for Plant response rating, Ragweed: 31 g ai/ha, scale 0 to 100 (0 no effect, 100 complete control)
# In short: as §2
# [5] = system: common (oilseed) sunflower; assay: Test C pre-/postemergence test; format: in vivo, Helianthus annuus; conditions: for Plant response rating, Sunflower: 31 g ai/ha, scale 0 to 100 (0 no effect, 100 complete control)
# In short: as §2
# velvetleaf = assay: Test C pre-/postemergence test; format: in vivo, Abutilon theophrasti; conditions: for Plant response rating, Velvetleaf: 31 g ai/ha, scale 0 to 100 (0 no effect, 100 complete control)
# In short: as §2
# [6] = Postemergence, 500 g ai/ha, 0 is no effect, 100 is complete control
# [7] = Preemergence, 125 g ai/ha, 0 no effect, 100 complete control
# [8] = 62 g ai/ha, Preemergence, scale 0 to 100
# [9] = 125 g ai/ha, preemergence, scale 0 (no effect) to 100 (complete control)
# [10] = preemergence, 250 g ai/ha, scale 0 (no effect) to 100 (complete control)
# [11] = Postemergence, 125 g ai/ha, 0 is no effect, 100 is complete control
structure (smiles),measurement,setting,value
Cc1cc[n+]([O-])c(S(=O)(=O)Cc2c(C(F)(F)F)nn(C)c2OC(C)C(F)(F)F)c1 (stereo not shown) [Compound 96],"Plant response rating, Foxtail, Giant","giant foxtail [1]; Postemergence, 125 g ai/ha",70
same,"Foxtail, Giant plant response rating",giant foxtail [1]; [6],80
same,"Foxtail, Giant plant response rating",giant foxtail [1]; [7],100
same,"Plant response rating, Foxtail, Giant","giant foxtail [1]; Preemergence, 500 g ai/ha",100
same,"Plant response rating, Morningglory","morningglory; Postemergence, 125 g ai/ha",10
same,Morningglory plant response rating,morningglory; [6],70
same,Morningglory plant response rating,morningglory; [7],20
same,"Plant response rating, Morningglory","morningglory; Preemergence, 500 g ai/ha",80
same,"Plant response rating, Pigweed","redroot pigweed; Postemergence, 125 g ai/ha",30
same,Pigweed plant response rating,redroot pigweed; [6],80
same,Pigweed plant response rating,redroot pigweed; [7],90
same,"Plant response rating, Pigweed","redroot pigweed; Preemergence, 500 g ai/ha",90
same,"Plant response rating, Wheat","wheat [2]; Postemergence, 125 g ai/ha",50
same,Wheat plant response rating,wheat [2]; [6],70
same,Wheat plant response rating,wheat [2]; [7],20
same,Wheat plant response rating,"wheat [2]; Preemergence, 500 g ai/ha, 0 no effect, 100 complete control",80
same,Blackgrass plant response rating,blackgrass; [8],100
same,Blackgrass plant response rating,blackgrass; [9],100
same,"Plant response rating, Blackgrass",blackgrass; Preemergence,65
same,Blackgrass plant response rating,blackgrass; [10],100
same,"Bromegrass, Downy plant response rating",downy brome; [8],50
same,"Plant response rating, Bromegrass, Downy",downy brome; Preemergence,50
same,"Bromegrass, Downy plant response rating",downy brome; [10],55
same,Wheat plant response rating,wheat [3]; [8],0
same,Wheat plant response rating,wheat [3]; [9],45
same,"Plant response rating, Wheat",wheat [3]; Preemergence,0
same,Wheat plant response rating,wheat [3]; [10],45
same,"Oat, Wild plant response rating",wild oat; [8],80
same,"Oat, Wild plant response rating",wild oat; [9],95
same,"Plant response rating, Oat, Wild",wild oat; Preemergence,70
same,"Oat, Wild plant response rating",wild oat; [10],98
same,Galium plant response rating,catchweed bedstraw; [8],80
same,Galium plant response rating,catchweed bedstraw; [9],98
same,"Plant response rating, Galium",catchweed bedstraw; Preemergence,0
same,Galium plant response rating,catchweed bedstraw; [10],100
same,Surinam Grass plant response rating,Surinam grass; [8],80
same,Surinam Grass plant response rating,Surinam grass; [9],100
same,"Plant response rating, Surinam Grass",Surinam grass; Preemergence,75
same,Surinam Grass plant response rating,Surinam grass; [10],100
same,Cocklebur plant response rating,cocklebur; [8],0
same,Cocklebur plant response rating,cocklebur; [9],10
same,"Plant response rating, Cocklebur",cocklebur; Preemergence,0
same,Cocklebur plant response rating,cocklebur; [10],40
same,"Cupgrass, Woolly plant response rating",woolly cupgrass; [8],70
same,"Cupgrass, Woolly plant response rating",woolly cupgrass; [9],95
same,"Plant response rating, Cupgrass, Woolly",woolly cupgrass; Preemergence,50
same,"Cupgrass, Woolly plant response rating",woolly cupgrass; [10],98
same,"Foxtail, Giant plant response rating",giant foxtail [4]; [8],80
same,"Foxtail, Giant plant response rating",giant foxtail [4]; [9],95
same,"Plant response rating, Foxtail, Giant",giant foxtail [4]; Preemergence,80
same,"Foxtail, Giant plant response rating",giant foxtail [4]; [10],98
same,Kochia plant response rating,kochia; [8],70
same,Kochia plant response rating,kochia; [9],100
same,"Plant response rating, Kochia",kochia; Preemergence,0
same,Kochia plant response rating,kochia; [10],100
same,Lambsquarters plant response rating,lambsquarters; [8],100
same,Lambsquarters plant response rating,lambsquarters; [9],100
same,"Plant response rating, Lambsquarters",lambsquarters; Preemergence,50
same,Lambsquarters plant response rating,lambsquarters; [10],100
same,Nightshade plant response rating,eastern black nightshade; [8],85
same,Nightshade plant response rating,eastern black nightshade; [9],95
same,"Plant response rating, Nightshade",eastern black nightshade; Preemergence,75
same,Nightshade plant response rating,eastern black nightshade; [10],100
same,Ragweed plant response rating,common ragweed; [8],20
same,Ragweed plant response rating,common ragweed; [9],100
same,"Plant response rating, Ragweed",common ragweed; Preemergence,20
same,Ragweed plant response rating,common ragweed; [10],100
same,Sunflower plant response rating,[5]; [8],0
same,Sunflower plant response rating,[5]; [9],0
same,"Plant response rating, Sunflower",[5]; Preemergence,0
same,Sunflower plant response rating,[5]; [10],30
same,Velvetleaf plant response rating,velvetleaf; [8],30
same,Velvetleaf plant response rating,velvetleaf; [9],40
same,"Plant response rating, Velvetleaf",velvetleaf; Preemergence,0
same,Velvetleaf plant response rating,velvetleaf; [10],90
Cn1nc(C(F)(F)F)c(C[S+]([O-])c2cc(F)cc[n+]2[O-])c1Cl (racemic) [Compound 42],"Foxtail, Giant plant response rating",giant foxtail [1]; [11],80
same,"Foxtail, Giant plant response rating",giant foxtail [1]; [6],90
same,"Foxtail, Giant plant response rating",giant foxtail [1]; [7],100
same,"Plant response rating, Foxtail, Giant","giant foxtail [1]; Preemergence, 500 g ai/ha",100
same,Morningglory plant response rating,morningglory; [11],40
same,Morningglory plant response rating,morningglory; [6],90
same,Morningglory plant response rating,morningglory; [7],30
same,"Plant response rating, Morningglory","morningglory; Preemergence, 500 g ai/ha",90
same,Pigweed plant response rating,redroot pigweed; [11],60
same,Pigweed plant response rating,redroot pigweed; [6],70
same,Pigweed plant response rating,redroot pigweed; [7],100
same,"Plant response rating, Pigweed","redroot pigweed; Preemergence, 500 g ai/ha",100
same,Wheat plant response rating,wheat [2]; [11],40
same,Wheat plant response rating,wheat [2]; [6],50
same,Wheat plant response rating,wheat [2]; [7],20
same,"Plant response rating, Wheat","wheat [2]; Preemergence, 500 g ai/ha",60
same,Blackgrass plant response rating,blackgrass; [8],70
same,Blackgrass plant response rating,blackgrass; [9],95
same,"Plant response rating, Blackgrass",blackgrass; Preemergence,70
same,Blackgrass plant response rating,blackgrass; [10],98
same,"Bromegrass, Downy plant response rating",downy brome; [8],15
same,"Bromegrass, Downy plant response rating",downy brome; [9],45
same,"Plant response rating, Bromegrass, Downy",downy brome; Preemergence,10
same,"Bromegrass, Downy plant response rating",downy brome; [10],70
same,Wheat plant response rating,wheat [3]; [8],0
same,Wheat plant response rating,wheat [3]; [9],10
same,"Plant response rating, Wheat",wheat [3]; Preemergence,0
same,Wheat plant response rating,wheat [3]; [10],70
same,"Oat, Wild plant response rating",wild oat; [8],5
same,"Oat, Wild plant response rating",wild oat; [9],50
same,"Plant response rating, Oat, Wild",wild oat; Preemergence,0
same,"Oat, Wild plant response rating",wild oat; [10],90
same,Galium plant response rating,catchweed bedstraw; [8],50
same,Galium plant response rating,catchweed bedstraw; [9],100
same,"Plant response rating, Galium",catchweed bedstraw; Preemergence,0
same,Galium plant response rating,catchweed bedstraw; [10],100
same,Surinam Grass plant response rating,Surinam grass; [8],80
same,Surinam Grass plant response rating,Surinam grass; [9],85
same,"Plant response rating, Surinam Grass",Surinam grass; Preemergence,60
same,Surinam Grass plant response rating,Surinam grass; [10],100
same,Cocklebur plant response rating,cocklebur; [8],0
same,Cocklebur plant response rating,cocklebur; [9],0
same,"Plant response rating, Cocklebur",cocklebur; Preemergence,0
same,Cocklebur plant response rating,cocklebur; [10],50
same,"Cupgrass, Woolly plant response rating",woolly cupgrass; [8],55
same,"Cupgrass, Woolly plant response rating",woolly cupgrass; [9],85
same,"Plant response rating, Cupgrass, Woolly",woolly cupgrass; Preemergence,35
same,"Cupgrass, Woolly plant response rating",woolly cupgrass; [10],90
same,"Foxtail, Giant plant response rating",giant foxtail [4]; [8],100
same,"Foxtail, Giant plant response rating",giant foxtail [4]; [9],100
same,"Plant response rating, Foxtail, Giant",giant foxtail [4]; Preemergence,98
same,"Foxtail, Giant plant response rating",giant foxtail [4]; [10],100
same,Kochia plant response rating,kochia; [8],100
same,Kochia plant response rating,kochia; [9],100
same,"Plant response rating, Kochia",kochia; Preemergence,100
same,Kochia plant response rating,kochia; [10],100
same,Lambsquarters plant response rating,lambsquarters; [8],100
same,Lambsquarters plant response rating,lambsquarters; [9],100
same,"Plant response rating, Lambsquarters",lambsquarters; Preemergence,80
same,Lambsquarters plant response rating,lambsquarters; [10],100
same,Nightshade plant response rating,eastern black nightshade; [8],80
same,Nightshade plant response rating,eastern black nightshade; [9],100
same,"Plant response rating, Nightshade",eastern black nightshade; Preemergence,80
same,Nightshade plant response rating,eastern black nightshade; [10],100
same,Ragweed plant response rating,common ragweed; [8],70
same,Ragweed plant response rating,common ragweed; [9],90
same,"Plant response rating, Ragweed",common ragweed; Preemergence,5
same,Ragweed plant response rating,common ragweed; [10],90
same,Sunflower plant response rating,[5]; [8],0
same,Sunflower plant response rating,[5]; [9],30
same,"Plant response rating, Sunflower",[5]; Preemergence,0
same,Sunflower plant response rating,[5]; [10],80
same,Velvetleaf plant response rating,velvetleaf; [8],60
same,Velvetleaf plant response rating,velvetleaf; [9],70
same,"Plant response rating, Velvetleaf",velvetleaf; Preemergence,0
same,Velvetleaf plant response rating,velvetleaf; [10],100
